The values below are quoted from earlier work in US20130303628A1, “CURCUMINOID SOLID DISPERSION FORMULATION” (ABBOTT LABORATORIES, priority 2010, published 2013).

For the data set the following is noted: acidic and neutral pH.

For `COc1cc(C=CC(=O)CC(=O)C=Cc2ccc(O)c(OC)c2)ccc1O` [Curcumin, 1,7-Bis-(4-hydroxy-3-methoxyphenyl)-hepta-1,6-diene-3,5-dione], the solubility in water entry is “practically insoluble”.
